Assay results reported in publication PMC3578935, “Biochemical Characterization of CTX-M-15 from Enterobacter cloacae and Designing a Novel Non-β-Lactam-β-Lactamase Inhibitor” (PLoS ONE, 2013).
In brackets after ≈: the same amount, converted by molar mass. Entries after “also recorded” stand apart in the source; their conditions may differ. Where two headings read alike, the source gives them in different places.

Legend:
[1] = system: CO/N=C(\C(=O)N[C@@H]1C(=O)N2C(C(=O)O)=C(CSc3nc(=O)c(=O)[nH]n3C)CS[C@H]12)c1csc(N)n1; experiment: purified protein, by the assay type; conditions: other: 50 mM phosphate buffer pH 7.0, 30°C
[2] = system: CC(C)(O/N=C(\C(=O)N[C@@H]1C(=O)N2C(C(=O)[O-])=C(C[n+]3ccccc3)CS[C@H]12)c1csc(N)n1)C(=O)O; experiment: purified protein, by the assay type; conditions: other: 50 mM phosphate buffer pH 7.0, 30°C
[3] = system: O=C(Cc1cccs1)N[C@@H]1C(=O)N2C(C(=O)O)=C(/C=C/c3ccc([N+](=O)[O-])cc3[N+](=O)[O-])CS[C@H]12; experiment: purified protein, by the assay type; conditions: other: 50 mM phosphate buffer pH 7.0, 30°C
[4] = system: CC1(C)S[C@@H]2[C@H](NC(=O)[C@H](N)c3ccccc3)C(=O)N2[C@H]1C(=O)O; experiment: purified protein, by the assay type; conditions: other: 50 mM phosphate buffer pH 7.0, 30°C
[5] = system: C[C@]1(Cn2ccnn2)[C@H](C(=O)O)N2C(=O)C[C@H]2S1(=O)=O; experiment: purified protein, by the assay type; conditions: other: slope of k i versus inhibitor concentration
Source text: (§1) The parameters k +2, k +3 and K′ are the first-order acylation and deacylation constants, and the dissociation constant of the Henri-Michaelis complex, respectively.
(§2) where, v o, v t and v ss are the rates of utilization of the reporter substrate at times 0 and t, and after the steady-state has been established, respectively.
(§3) The individual parameters, k +2, k +3 and K′, were derived from the dependence of k i upon inhibitor concentration, [C], on the basis of the following equation: [drawing 10]
(§4) When the concentration of inhibitor [C] is well below K′, k i varies linearly the above equations is simplified as: [drawing 11]
(§5) The k +2/K′ value is then obtained from the slope of the line, whereas k +3 is given by the intercept at [C] = 0. Conversely, if [C] is much larger than K′ (K m+[S])/K m, then k i = k +2+k +3, and is independent of [C]

[6] = system: CCN1CCN(C(=O)N[C@@H](C(=O)N[C@@H]2C(=O)N3[C@@H]2SC(C)(C)[C@@H]3C(=O)O)c2ccccc2)C(=O)C1=O; experiment: purified protein, by the assay type; conditions: other: 50 mM phosphate buffer pH 7.0, 30°C
[7] = system: CO/N=C(\C(=O)N[C@@H]1C(=O)N2C(C(=O)O)=C(COC(C)=O)CS[C@H]12)c1csc(N)n1; experiment: purified protein, by the assay type; conditions: other: 50 mM phosphate buffer pH 7.0, 30°C
[8] = system: CO/N=C(\C(=O)N[C@@H]1C(=O)N2C(C(=O)O)=C(COC(N)=O)CS[C@H]12)c1ccco1; experiment: purified protein, by the assay type; conditions: other: 50 mM phosphate buffer pH 7.0, 30°C
[9] = system: E. coli DH5α (Null Plasmid); experiment: MIC by micro-dilution, null plasmid control strain; assay type: cell-based; conditions: Escherichia coli, read-out: MIC DH5α(Null Plasmid)
[10] = system: E. coli DH5α transformed with recombinant bla CTX-M-15 (pQE-2-CTX-M-15); experiment: MIC by micro-dilution, β-lactams alone or with inhibitors; assay type: cell-based; conditions: for MIC: Escherichia coli, read-out: MIC DH5α(pQE-2-CTX-M-15), E. coli DH5α with bla CTX-M-15 cloned from E. cloacae EC-15; for fold lowering of MIC of cefotaxime in combination with inhibitor: DH5α transformed with bla CTX-M-15
Protocol: E. coli DH5α and E. coli BL21 (DE3) were used for cloning and protein expression experiments, respectively. MICs were determined on E. coli DH5α transformed with cloned CTX-M-15 from Enterobacter cloacae clinical strain EC-15.
The MICs for various antibiotics alone or in combination with various inhibitors (clavulanic acid, sulbactam, tazobactam and ZINC03787097) were determined by micro-dilution method and the results were interpreted according to Clinical Laboratory Standards Institute (CLSI) guidelines. Briefly, E. coli DH5α cells transformed with CTX-M-15 was treated with increasing concentrations of the antibiotics ranging from 0.5 to 2000 µg/ml in a series of two fold dilutions. The inhibitors clavulanic acid, sulbactam and tazobactam were used at a fixed concentration of 4 µg/ml, while ZINC03787097 was used at 20 µg/ml.

CTX-M-15 [11] = molecular target: T1, CTX-M-15 (Escherichia coli, UniProt Q9EXV5); experiment: Enzyme inhibition kinetics (acylation/deacylation, competition with nitrocefin)
Source text: as §1, §2, §3, §4, §5

CTX-M-15 [12] = molecular target: T1, CTX-M-15; experiment: IC50 determination, nitrocefin hydrolysis after 5 min pre-incubation; assay type: biochemical, Enterobacter cloacae; set-up: His tag (inferred from the pQE-2 vector and Ni-NTA purification); made in house; host or cells: E. coli BL21 (DE3); conditions: IC50, 5 min pre-incubation at 30°C; 100 µM nitrocefin
Protocol: The 50% inhibitory concentration (IC50) was determined as the concentration of the inhibitor that inhibited hydrolytic activity of the enzyme by 50%.

CTX-M-15 [13] = molecular target: T1, CTX-M-15; experiment: Stability of ZINC03787097 in the presence of CTX-M-15 (UV absorbance); assay type: biochemical, Enterobacter cloacae; set-up: His tag (inferred from the pQE-2 vector and Ni-NTA purification); made in house; host or cells: E. coli BL21 (DE3); conditions: 100 µM inhibitor, 10 nM CTX-M-15, 3600 seconds, absorbance at 283 nm and 222 nm
Protocol: The UV absorption spectrum (320-210 nm) of ZINC03787097 (100 µM) alone or after 3600 seconds incubation with CTX-M-15 (10 nM) was measured in 50 mM phosphate buffer, pH 7.0 at 30°C on Shimadzu UV-VIS spectrophotometer (UV-1800). The stability of ZINC03787097 in the presence of CTX-M-15 was monitored by measuring the absorbance for 3600 seconds at 283 nm and 222 nm.

CTX-M-15 [14] = molecular target: T1, CTX-M-15; assay type: biochemical, Enterobacter cloacae; set-up: His tag (inferred from the pQE-2 vector and Ni-NTA purification); made in house; host or cells: E. coli BL21 (DE3); conditions: for K m for nitrocefin hydrolysis in the presence of inhibitor: 0.50 nM CTX-M-15
CTX-M-15 [15] = molecular target: T1, CTX-M-15; conditions: for K m or K i: K m for good substrates, for poor substrates (ceftazidime, cefepime, aztreonam) determined as K i against 100 µM nitrocefin
Protocol: The inhibitors used were Clavulanic acid, Sulabctam, Tazobactam and ZINC03787097.
Hydrolysis of β-lactam antibiotics was detected by monitoring the variation in the absorbance due to cleavage of β-lactam ring in 50 mM phosphate buffer, pH 7.0 [28]. All the measurements were taken in triplicate on Shimadzu UV-VIS spectrophotometer (UV-1800). The reaction was performed in a total volume of 500 µl at 30°C. For dilution of the enzyme and to prevent denaturation, BSA was added to a final concentration of 20 µg/ml.

[16] = in combinations clavulanic acid, sulbactam, tazobactam at 4 µg/ml, ZINC03787097 at 20 µg/ml
[17] = K i, determined at steady-state, competition with 100 µM nitrocefin

Compound: CTX-M-15 (Escherichia coli)
- kcat [1]: 82 ± 5 s⁻¹
- kcat/Km [1]: 2.5e+06 M⁻¹ s⁻¹
- kcat [2]: 1.51 ± 0.03 s⁻¹
- kcat/Km [2]: 1200 M⁻¹ s⁻¹
- kcat [3]: 582 s⁻¹
- kcat/Km [3]: 1.66e+07 M⁻¹ s⁻¹
- kcat [4]: 57 ± 3 s⁻¹
- kcat/Km [4]: 3.8e+06 M⁻¹ s⁻¹
- kcat/Km [5]: 440000 M⁻¹ s⁻¹
- kcat [6]: 58 ± 4 s⁻¹
- kcat/Km [6]: 1.8e+06 M⁻¹ s⁻¹
- kcat [7]: 222 ± 7 s⁻¹
- kcat/Km [7]: 3.7e+06 M⁻¹ s⁻¹
- kcat [8]: 87 ± 2 s⁻¹
- kcat/Km [8]: 3e+06 M⁻¹ s⁻¹

Compound: CO/N=C(\C(=O)N[C@@H]1C(=O)N2C(C(=O)[O-])=C(C[N+]3(C)CCCC3)CS[C@H]12)c1csc(N)n1 [Cefepime]
- MIC [9]: 0.25 µg/mL (≈ 0.52 µM)
- MIC DH5α(pQE-2-CTX-M-15) ([10]; E. coli DH5α with bla CTX-M-15 cloned from E. cloacae EC-15, in combinations clavulanic acid, sulbactam, tazobactam at 4 µg/ml, ZINC03787097 at 20 µg/ml, listed as Cefepime (IV)): 128 µg/ml
- MIC [10, 16]: 125 µg/mL

Compound: CC#CCC(C)C(O)C=CC1C(O)CC2Oc3c(CCCC(=O)O)cccc3C21 (stereo not drawn) [ZINC03787097]
- Ki (CTX-M-15 [11]; [17]): 0.388 µM
- IC50 (CTX-M-15 [12]): 0.18 µM
- hydrolysis of inhibitor by CTX-M-15 (CTX-M-15 [13]): no detectable hydrolysis; also recorded: negligible hydrolysis
- fold lowering of MIC of cefotaxime in combination with inhibitor [10]: 2 fold
- effect on MICs of antibiotics of cephalosporin group ([10]; ZINC03787097 at 20 µg/ml): reduced in the presence of ZINC03787097 to a level observed in the case of antibiotic-sulbactam combination
- K m for nitrocefin hydrolysis in the presence of inhibitor (CTX-M-15 [14]; 0.25 µM ZINC03787097): 67 µM
- K m for nitrocefin hydrolysis in the presence of inhibitor (CTX-M-15 [14]; 0.50 µM ZINC03787097): 94 µM
- K m for nitrocefin hydrolysis in the presence of inhibitor (CTX-M-15 [14]; 0.75 µM ZINC03787097): 96 µM
- mode of inhibition (CTX-M-15 [14]; Lineweaver-Burg plot): reversible inhibitor; also recorded: competitive inhibition
- Vmax of nitrocefin hydrolysis (CTX-M-15 [14]; similar at 0.00-0.75 µM ZINC03787097): 3.22e-07 M/s

Compound: CC(C)(O/N=C(\C(=O)N[C@@H]1C(=O)N2C(C(=O)[O-])=C(C[n+]3ccccc3)CS[C@H]12)c1csc(N)n1)C(=O)O [Ceftazidime]
- k cat (CTX-M-15 [15]; 50 mM phosphate buffer pH 7.0, 30°C): 1.51 s⁻¹
- K m or K i (CTX-M-15 [15]): 1209 µM
- K m or K i (CTX-M-15 [15]; listed as Ceftazidime (III)): 1209 ± 91 µM
- MIC [9, 16]: 0.25 µg/mL
- MIC [10, 16]: 4 µg/mL

Compound: CC1(C)[C@H](C(=O)O)N2C(=O)C[C@H]2S1(=O)=O [Sulbactam]
- Ki (CTX-M-15 [11]; K i calculated as K i = k +3 K/k +2, calculated value): 0.131 µM
- Ki (CTX-M-15 [11]; [17]): 0.062 µM
- K′ (CTX-M-15 [11]; dissociation constant of the Henri-Michaelis complex): 0.55 µM
- k +2 x 10^−2 (CTX-M-15 [11]; first-order acylation constant, values x 10^−2): 1.6 s^−1
- IC50 (CTX-M-15 [12]): 0.212 µM
- fold lowering of MIC of cefotaxime in combination with inhibitor [10]: 2 fold

Compound: CCN1CCN(C(=O)N[C@@H](C(=O)N[C@@H]2C(=O)N3[C@@H]2SC(C)(C)[C@@H]3C(=O)O)c2ccccc2)C(=O)C1=O [Piperacillin]
- K m or K i (CTX-M-15 [15]): 32 ± 5 µM
- MIC [9, 16]: 1 µg/mL

Compound: C[C@H]1[C@H](NC(=O)/C(=N\OC(C)(C)C(=O)O)c2csc(N)n2)C(=O)N1S(=O)(=O)O [Aztreonam]
- MIC [9]: 0.25 µg/mL (≈ 0.574 µM)
- MIC [10, 16]: 16 µg/mL

Compound: CO/N=C(\C(=O)N[C@@H]1C(=O)N2C(C(=O)O)=C(COC(N)=O)CS[C@H]12)c1ccco1 [Cefuroxime]
- K m or K i (CTX-M-15 [15]): 29 ± 2 µM
- MIC [9, 16]: 1 µg/mL
